System: NK-1148 strain (FERM BP-1859)
Experiment: Effect of lignin-related substances on the enzyme production
Type: cell-based
Conditions: 0.2% of substance added after 7 days culture, further cultured at 28° C. for one day
Procedure: (§1) 20 μl of the enzyme of this invention is made to react with a reaction solution consisting of 10 μl of a 10 mM syringylglycerol-β-syringylether solution which contains a small amount of dioxane and 720 μl of a 50 mM acetate buffer solution (pH 5.0) and increases of absorbance at 300 nm are measured.
(§2) Enzyme activity producing a 0.01 increase of absorbance during one minute is supposed to be one unit.
After 100 ml of a medium of the same composition as that used in Example 3 was placed in a 500 ml Erlenmeyer flask and sterilized at 120° C. for 15 minutes, NK-1148 strain (FERM BP-1859) was inoculated into the medium and cultured at 28° C. for 7 days.

SMILES	Enzymatic activity
OCc1ccccc1 [Benzyl alcohol, benzyl alcohol]	0.01 Unit/ml
COc1cc(CO)cc(OC)c1O [Syringyl alcohol, syringyl alcohol]	4.0 Unit/ml
COc1cc(C(O)C(CO)Oc2c(OC)cccc2OC)cc(OC)c1O (stereo not drawn) [Syringylglycerol-β-syringylether, syringylglycerol-β-syringylether]	3.9 Unit/ml
COc1cc(CO)ccc1O [Vanillyl alcohol, vanillyl alcohol]	3.95 Unit/ml
COc1ccc(CO)cc1OC [Veratryl alcohol, veratryl alcohol]	0.05 Unit/ml

System: F-3
Experiment: not given
Type: biochemical, NK-1148 strain
Conditions: pH 5, 1000 µM
Procedure: (§3) The results of measuring enzyme activities of the enzymes of this invention (F-1, F-2 and F-3) after adding each of various substances are as follows.
as §1, §2

SMILES	Relative Activity F-3
O=C(O)CN(CCN(CC(=O)O)CC(=O)O)CC(=O)O [EDTA]	101

Same assay, conditions: substance added at 0.5 mM; no addition = 100%

SMILES	Relative Activity F-3
[Cl][Fe]([Cl])[Cl] [FeCl3]	25%

Same assay, conditions: substance added at 1 mM; no addition = 100%

SMILES	Relative Activity F-3
OCCS [2-Mercapto-ethanol]	15%
[Cl][Al]([Cl])[Cl] [AlCl3]	65%
[Ba+2].[Cl-].[Cl-] [BaCl2]	95%
[Ca+2].[Cl-].[Cl-] [CaCl2]	95%
[Cl-].[Cl-].[Co+2] [CoCl2]	96%
[Cl][Cu][Cl] [CuCl2]	100%
N[C@@H](CS)C(=O)O [Cysteine]	13%
[Cl][Hg][Cl] [HgCl2]	18%
[Cl-].[Cl-].[Mg+2] [MgCl2]	95%
[Cl][Mn][Cl] [MnCl2]	95%
[N-]=[N+]=[N-].[Na+] [NaN3]	20%
CCCCCCCCCCCCOS(=O)(=O)[O-].[Na+] [SDS, sodium dodecyl sulfate]	103%
[Cl-].[Cl-].[Zn+2] [ZnCl3]	94%

System: F-1
Experiment: not given
Type: biochemical, NK-1148 strain
Conditions: pH 5, 1000 µM
Procedure: as §3, §1, §2

SMILES	Relative Activity F-1
O=C(O)CN(CCN(CC(=O)O)CC(=O)O)CC(=O)O [EDTA]	98

Same assay, conditions: substance added at 0.5 mM; no addition = 100%

SMILES	Relative Activity F-1
[Cl][Fe]([Cl])[Cl] [FeCl3]	15%

Same assay, conditions: substance added at 1 mM; no addition = 100%

SMILES	Relative Activity F-1
OCCS [2-Mercapto-ethanol]	10%
[Cl][Al]([Cl])[Cl] [AlCl3]	61%
[Ba+2].[Cl-].[Cl-] [BaCl2]	93%
[Ca+2].[Cl-].[Cl-] [CaCl2]	94%
[Cl-].[Cl-].[Co+2] [CoCl2]	97%
[Cl][Cu][Cl] [CuCl2]	102%
N[C@@H](CS)C(=O)O [Cysteine]	11%
[Cl][Hg][Cl] [HgCl2]	11%
[Cl-].[Cl-].[Mg+2] [MgCl2]	94%
[Cl][Mn][Cl] [MnCl2]	95%
[N-]=[N+]=[N-].[Na+] [NaN3]	14%
CCCCCCCCCCCCOS(=O)(=O)[O-].[Na+] [SDS, sodium dodecyl sulfate]	106%
[Cl-].[Cl-].[Zn+2] [ZnCl3]	94%

System: F-2
Experiment: not given
Type: biochemical, NK-1148 strain
Conditions: pH 5, 1000 µM
Procedure: as §3, §1, §2

SMILES	Relative Activity F-2
O=C(O)CN(CCN(CC(=O)O)CC(=O)O)CC(=O)O [EDTA]	102

Same assay, conditions: substance added at 0.5 mM; no addition = 100%

SMILES	Relative Activity F-2
[Cl][Fe]([Cl])[Cl] [FeCl3]	31%

Same assay, conditions: substance added at 1 mM; no addition = 100%

SMILES	Relative Activity F-2
OCCS [2-Mercapto-ethanol]	19%
[Cl][Al]([Cl])[Cl] [AlCl3]	65%
[Ba+2].[Cl-].[Cl-] [BaCl2]	95%
[Ca+2].[Cl-].[Cl-] [CaCl2]	95%
[Cl-].[Cl-].[Co+2] [CoCl2]	94%
[Cl][Cu][Cl] [CuCl2]	92%
N[C@@H](CS)C(=O)O [Cysteine]	21%
[Cl][Hg][Cl] [HgCl2]	21%
[Cl-].[Cl-].[Mg+2] [MgCl2]	94%
[Cl][Mn][Cl] [MnCl2]	95%
[N-]=[N+]=[N-].[Na+] [NaN3]	23%
CCCCCCCCCCCCOS(=O)(=O)[O-].[Na+] [SDS, sodium dodecyl sulfate]	101%
[Cl-].[Cl-].[Zn+2] [ZnCl3]	93%

— US5149648A, “Enzymes employed for producing pulps” (Kabushiki Kaisha Kobe Seiko Sho, priority 1989, dated 1992)
